Reference: patent US5712161A, “Method for culturing animal cells in collagen drops on a support” (Nitta Gelatin Inc., priority 1993, dated 1998)
Where two headings read alike, the source gives them in different places. One block for each molecule: values may come before it.

Tests used:
[1] = tested on: breast cancer cells (surgical sample from a human cancer patient); assay: Anticancer agent sensitivity, NR extraction method, absorbance; type: cell-based; conditions: for Effect/control (Neutral Red absorbance): control = 1.00
Experimental: A test was conducted in the same way as in Example 1, but the image analysis of live cells as stained with the NR was not carried out, and the NR was instead extracted from the live cells, thus measuring the absorbance. A surgical sample (breast cancer) as obtained from a human cancer patient was used as the starting material, and the test was carried out according to the same procedures and methods as in Example 1, except for the procedures of the formalin-fixation, the drying and the image analysis in the pigment stain analysis step. The NR as incorporated into live cells was extracted by dissolving the collagen gel with collagenase in the culture container and then adding an NR extractant, and the absorbance of the resultant extract was measured.

[2] = tested on: breast cancer cells (surgical sample from a human cancer patient); assay: Anticancer agent sensitivity, MTT assay method, formazane absorbance; type: cell-based; conditions: for Effect/control (formazane absorbance): control = 1.00
Experimental: A test was conducted in the same way as in Example 1, but an MTT reagent was substituted for the AB coloring agent in the colorimetric analysis step. A surgical sample (breast cancer) as obtained from a human cancer patient was used as the starting material, and the test was carried out according to the same procedures and methods as in Example 1, except for the procedures subsequent to the colorimetric analysis step. The formazane as deposited in live cells was extracted by dissolving the collagen gel with collagenase in the culture container and then adding a formazane extractant, and the absorbance of the resultant extract was measured, when the deposited fine crystal of formazane was held in the collagen gel, such that results were obtained with good accuracy.

[3] = tested on: human breast cancer cells (surgical sample); conditions: primary breast cancer cells, 24 h
Experimental: (§1) The capsule, fat, etc. were removed from the tissue containing the breast cancer using scissors and forceps under aseptic conditions, and then sliced with a razor.
(§2) The live tumor cells as obtained by the above-mentioned preliminary culture and collection steps were embedded into a globular collagen gel and cultured.
(§3) The embedded culture was carried out as follows: 1 volume of 10-fold concentrated Ham's F12 culture solution (sodium bicarbonate-free) and 1 volume of a reconstituting buffer solution (50 mM NaOH solution containing 260 mM sodium bicarbonate and 200 mM-HEPES) were added to 8 volumes of Cellmatrix Type I-A (0.3% acid-soluble Type-I collagen solution: product of Nitta Gelatin Inc.); the breast cancer cells and the like as obtained in the above-mentioned preliminary culture and collection steps were added and well mixed into the resultant mixture; the final concentration was adjusted to 5×10^4 cells/ml; and the resultant mixture was kept in ice.
(§4) A 0.5-ml portion of the culture solution containing an anticancer agent was superposed on the globular collagen gel in which the cancer cells were embedded and which was obtained in the above-mentioned embedding step, and the cancer cells were allowed to be in contacted with the anticancer agent by keeping them in a 5% carbon dioxide incubator at 37° C. for 24 hours. The following six anticancer agents were used: MMC (mitomycin C), CDDP (cisplatin), VDS (vindesine), VP-16, 5-FU (5fluorouracil) and ADM (adriamycin).
(§5) Then, the culture solution containing the anticancer agent was removed by suction, 0.5 ml of a culture solution free from an anticancer agent was instead added, the resultant mixture was shaken in a 5% carbon dioxide incubator, thus washing the globular collagen gel. This procedure was repeated at least every 10 minutes for a total of 3 times, whereby the anticancer agent was removed from the globular collagen gel.
(§6) After the above-mentioned agent contact step, 0.5 ml of a culture solution was added, and the culture was effected at 37° C. in a 5% carbon dioxide incubator for 7-14 days. The culture solution was exchanged every 1-2 days.
(§7) The viability of the cells in the sample as obtained by the culture was measured.
(§8) For the measurement, an AB coloring agent was used to cause a color reaction by the reductive activity of the cells.
(§9) The AB coloring agent was added in an amount of 1/50-1/10 relative to the culture solution, and the reaction was conducted for 6 hours in a carbon dioxide incubator.
(§10) After the reaction, the culture solution was separated off, and the absorbance of the culture solution was measured using a spectrophotometer. The measurement of the absorbance was performed at 570 nm with a reference wavelength of 600 nm.

[4] = tested on: human breast cancer cells (surgical sample); conditions: primary breast cancer cells, 24 h; remark: listed apart in the source
Experimental: (§11) Using a surgical sample as obtained from a human breast cancer patient as the starting material, it was treated according to the order as shown in the flow sheet.
as §3
(§12) A 0.5-ml portion of the culture solution containing an anticancer agent was superposed on the globular collagen gel in which the cancer cells were embedded and which was obtained in the above-mentioned embedding step, and the cancer cells were allowed to be in contacted with the anticancer agent by keeping them in a 5% carbon dioxide incubator at 37° C. for 24 hours.
as §5, §6, §8, §9
(§13) The same culture solution was also measured using a fluorospectrophotometer, with an excitatory wavelength of 560 nm and a detection wavelength of 590 nm.

[5] = tested on: human breast cancer cells (surgical sample); conditions: primary breast cancer cells, 24 h; remark: listed apart in the source
Experimental: as §11, §3, §4, §5, §6
(§14) The culture solution for the washing was free from sodium bicarbonate and cooled to 4° C. before use.
(§15) The culture container was then transferred to a cooled dark box. The culture solution was exchanged with a culture solution, to which an FDA-staining agent (FDA concentration: 2-10 μg/ml) which reacts due to esterase activity in live cells had been added, and was shaken for one hour in a refrigerator (10° C.), thus reacting the FDA with the cells.
(§16) The fluorescently colored cells were quantified by image analysis. The image for the image analysis was created using, an inverted fluorescent microscope, a sample holder cooling apparatus (in-house product), an excitatory light irradiation control apparatus, a sample holder driving apparatus and a high-sensitivity cooled CCD camera. The volume was measured on the basis of this image using an image analyzer according to a conventional method. The intensity of the excitatory light was 1×10^3 lux.sec on the sample holder.

[6] = tested on: human breast cancer cells (surgical sample); conditions: primary breast cancer cells, 24 h; remark: listed apart in the source
Experimental: as §3
(§17) Next, this collagen mixture solution was placed onto a 24-well multiplate at 30 μl/well using a micropipette and gelated to prepare globular collagen gels (for details see Example 1G).
as §4, §5
(§18) After the above-mentioned agent contact step, 0.5 ml of a culture solution was added, and the culture was effected at 37° C. in a 5% carbon dioxide incubator for 7-14 days. The culture solution was exchanged every 1-2 days. The proliferation culture solution as used was a culture solution containing a DF culture solution+10% FBS+5μg/ml insulin (product of Sigma Chemical Co.)+10 ng/ml EGF (EGF: epidermal growth factor, product of Becton Dickinson Labware)+20 ng/ml hydrocortisone (product of Sigma Chemical Co.) (see Example 1H).
(§19) The culture solution was exchanged with a culture solution, to which an FDA-staining agent (FDA concentration: 2-10 μg/ml) which reacts due to esterase activity in live cells had been added, and was shaken for one hour in a refrigerator (10° C.), thus reacting the FDA with the cells.
as §16
(§20) In addition to the conventional known volume measurement by image analysis, the viability of the cells was also measured by quantifying the fluorescence intensity on the image.

[7] = tested on: human breast cancer cells (surgical sample); conditions: primary breast cancer cells, 24 h; remark: listed apart in the source
Experimental: as §3, §17, §4, §5, §18, §15
(§21) The cultured cell sample as subjected to the fluorescent stain was washed for one hour with a fresh cooled culture solution, thus removing the extracellular fluorescent reagent. The culture solution as used for the washing was a DME culture solution. This solution was further exchanged with a culture solution of 37° C., shaking was performed for one hour in an incubator at 37° C., and the FDA which had reacted in the cells was extracted into the solution. The culture solution was separated off and measured using a fluorospectrophotometer, with an excitatory wavelength of 490 nm and a detection wavelength of 520 nm.

[8] = tested on: human breast cancer cells (surgical sample); conditions: primary breast cancer cells, 24 h; remark: listed apart in the source
Experimental: as §11, §3, §17, §4, §5, §18
(§22) The culture solution for the washing was a DME culture solution.
(§23) The culture solution was exchanged with a culture solution to which an NR-staining agent had been added (NR concentration: 25-50 μg/ml), and shaking was effected for 2 hours in a carbon dioxide incubator, thus incorporating the NR into the cells.
(§24) After the stain, the culture solution containing the NR was exchanged with PBS (Phosphate Buffered Saline), and the sample was allowed to stand stationary in a room for 10 minutes, thus removing the NR remaining outside of the cells.
(§25) Next, the PBS was exchanged with neutral 10% formalin, and the sample was allowed to stand stationary in a room for 40 minutes, thus fixing the cells and the NR as incorporated into the cells.
(§26) The globular collagen gel to which the cells had been fixed was immersed in distilled water for 10 minutes, thus removing the salts. When the globular collagen gel which had been immersed in the distilled water was air-dried at room temperature, whereby a flat dried product was formed.
(§27) At this time, the cultured cells were fixed in the dried collagen gel while containing the NR.
(§28) The volume of the fixed cells was measured using an image analyzer in the same manner as mentioned above.

[9] = tested on: human breast cancer cells (surgical sample); assay: Anticancer agent sensitivity, FDA stain, volume by image analysis; conditions: 24 h agent contact; for FDA volume: image analysis; for Effect/control (FDA volume): ratio to control = 1.00
Experimental: as §11, §3, §4, §5, §6, §14, §15, §16

[10] = tested on: human breast cancer cells (surgical sample); assay: Anticancer agent sensitivity, FDA stain, fluorescence intensity on image; conditions: 24 h agent contact; for FDA image fluorescence units: fluorescence intensity on image; for Effect/control (FDA image fluorescence): ratio to control = 1.00
Experimental: as §3, §17, §4, §5, §18, §19, §16, §20

[11] = tested on: human breast cancer cells (surgical sample); assay: Anticancer agent sensitivity, Neutral Red stain, volume by image analysis; conditions: 24 h agent contact; for Neutral Red volume: image analysis of fixed, dried gel; for Effect/control (Neutral Red volume): ratio to control = 1.00
Experimental: as §11, §3, §17, §4, §5, §18, §22, §23, §24, §25, §26, §27, §28

[12] = tested on: human breast cancer cells (surgical sample); assay: Anticancer agent sensitivity, FDA spectrophotofluorimetry of extracted dye; conditions: 24 h agent contact; for FDA spectrophotofluorimetry fluorescence units: excitation 490 nm, detection 520 nm; for Effect/control (FDA spectrophotofluorimetry): ratio to control = 1.00
Experimental: as §3, §17, §4, §5, §18, §15, §21

[13] = tested on: human breast cancer cells (surgical sample); assay: Anticancer agent sensitivity, globular collagen gel-embedded culture, Alamar Blue fluorescence; conditions: 24 h agent contact; for AlamarBlue fluorescence intensity: excitation 560 nm, detection 590 nm; for Effect/control (AlamarBlue fluorescence): ratio to control = 1.00
Experimental: as §11, §3, §12, §5, §6, §8, §9, §13

[14] = tested on: human breast cancer cells (surgical sample); assay: Anticancer agent sensitivity, globular collagen gel-embedded culture, Alamar Blue (AB) absorbance; conditions: 24 h agent contact, 7-14 days culture; for AlamarBlue absorbance: 570 nm, reference 600 nm; for Effect/control (AlamarBlue absorbance): ratio to control = 1.00
Experimental: as §1, §2, §3, §4, §5, §6, §7, §8, §9, §10

[15] = tested on: rabbit-oriented vascular endothelial cells; assay: Proliferation shape of vascular endothelial cells around globular collagen gel containing TGF-β; type: cell-based
Description: The procedure of Example 23 was repealed, but TGF-β (a transformation growth factor) was substituted for the cells of the group A, and rabbit-oriented vascular endothelial cells for the cells of the group B, and the following modifications were made. […] In FIG. 7, the transformation growth factor 70 is contained in the globular collagen gel 20a. A collagen gel 80a in which the rabbit-oriented vascular endothelial cells 50d were embedded was placed in the layered form into the inside of the multiplate 10, such that the globular collagen gel 20a was covered with the collagen gel 80a. The test was carried out in the same way as in Example 22 except for the components as contained in each collagen gel and for the placement of the gels. In addition, the collagen gel 80a was evaluated by microscopy.
As a result, different proliferation shapes of the vascular endothelial cells were observed depending on the distance from the surface of the globular collagen gel 20a.

[16] = tested on: fibroblasts in human lung cancer and human breast cancer samples; assay: Fibroblast proliferation in preliminary culture, microscopic observation; type: cell-based; conditions: 10 μg/ml dextran sulfate in serum culture solution, 7 days
Experimental: Thus, an investigation was made with regard to a serum-free culture solution (DF culture solution+5 μg/ml insulin+10 ng/ml EGF+8 ng/ml sodium selenite+10 μg/ml transferrin+5 mg/ml BSA) (BSA: bovine serum albumin) and a serum culture solution containing dextran sulfate (DF culture solution+10% FBS+insulin+EGF+hydrocortisone 10 μg/ml dextran sulfate).
The experimental materials used were the 14 cases of human lung cancer and 12 cases of human breast cancer which had adhered to the bottom of the culture dishes in Example 1A above as controls, and the above-mentioned culture solutions (the serum-free culture solution and the dextran sulfate-containing serum culture solution) were used to culture cells for 7 days.

[17] = 5-FU concentration 0.1 (Cmax = 1)
[18] = 5-FU concentration 0.2 (Cmax = 1)
[19] = 5-FU concentration 0.4 (Cmax = 1)
[20] = 5-FU concentration 0.6 (Cmax = 1)
[21] = 5-FU concentration 0.8 (Cmax = 1)
[22] = 5-FU concentration 1.0 (Cmax = 1)

Molecule: O=c1[nH]cc(F)c(=O)[nH]1 [5-FU, 5fluorouracil]
Neutral Red absorbance [1, 17]: 0.307
Effect/control (Neutral Red absorbance) [1, 17]: 0.88
Neutral Red absorbance [1, 18]: 0.206
Effect/control (Neutral Red absorbance) [1, 18]: 0.59
Neutral Red absorbance [1, 19]: 0.123
Effect/control (Neutral Red absorbance) [1, 19]: 0.35
Neutral Red absorbance [1, 20]: 0.100
Effect/control (Neutral Red absorbance) [1, 20]: 0.29
Neutral Red absorbance [1, 21]: 0.079
Effect/control (Neutral Red absorbance) [1, 21]: 0.23
Neutral Red absorbance [1, 22]: 0.072
Effect/control (Neutral Red absorbance) [1, 22]: 0.21
Formazane absorbance [2, 17]: 1.036
Effect/control (formazane absorbance) [2, 17]: 0.88
Formazane absorbance [2, 18]: 0.774
Effect/control (formazane absorbance) [2, 18]: 0.66
Formazane absorbance [2, 19]: 0.599
Effect/control (formazane absorbance) [2, 19]: 0.51
Formazane absorbance [2, 20]: 0.515
Effect/control (formazane absorbance) [2, 20]: 0.44
Formazane absorbance [2, 21]: 0.450
Effect/control (formazane absorbance) [2, 21]: 0.38
Formazane absorbance [2, 22]: 0.429
Effect/control (formazane absorbance) [2, 22]: 0.37
Effect/control (AlamarBlue absorbance) [3]: 0.73
Effect/control (AlamarBlue fluorescence) [4]: 0.71
Effect/control (FDA volume) [5]: 0.65
Effect/control (FDA image fluorescence) [6]: 0.62
Effect/control (FDA spectrophotofluorimetry) [7]: 0.63
Effect/control (Neutral Red volume) [8]: 0.64
FDA volume [9]: 9.89 10^7 μm^3
FDA image fluorescence units [10]: 4.77 10^1
Neutral Red volume [11]: 10.76 10^7 μm^3
FDA spectrophotofluorimetry fluorescence units [12]: 4.68 10^1
AlamarBlue fluorescence intensity [13]: 5.07 10^2
AlamarBlue absorbance [14]: 0.69

Molecule: COc1cccc2c1C(=O)c1c(O)c3c(c(O)c1C2=O)C[C@@](O)(C(=O)CO)C[C@@H]3O[C@H]1C[C@H](N)[C@H](O)[C@H](C)O1 [ADM, adriamycin]
FDA volume [9]: 10.93 10^7 μm^3
Effect/control (FDA volume) [9]: 0.72
FDA image fluorescence units [10]: 5.35 10^1
Effect/control (FDA image fluorescence) [10]: 0.70
Neutral Red volume [11]: 12.26 10^7 μm^3
Effect/control (Neutral Red volume) [11]: 0.73
FDA spectrophotofluorimetry fluorescence units [12]: 5.33 10^1
Effect/control (FDA spectrophotofluorimetry) [12]: 0.72
AlamarBlue fluorescence intensity [13]: 4.81 10^2
Effect/control (AlamarBlue fluorescence) [13]: 0.68
AlamarBlue absorbance [14]: 0.65
Effect/control (AlamarBlue absorbance) [14]: 0.68

Molecule: [NH2][Pt]([NH2])([Cl])[Cl] [CDDP, cisplatin]
FDA volume [9]: 5.68 10^7 μm^3
Effect/control (FDA volume) [9]: 0.37
FDA image fluorescence units [10]: 3.43 10^1
Effect/control (FDA image fluorescence) [10]: 0.45
Neutral Red volume [11]: 6.25 10^7 μm^3
Effect/control (Neutral Red volume) [11]: 0.37
FDA spectrophotofluorimetry fluorescence units [12]: 3.50 10^1
Effect/control (FDA spectrophotofluorimetry) [12]: 0.47
AlamarBlue fluorescence intensity [13]: 2.66 10^2
Effect/control (AlamarBlue fluorescence) [13]: 0.38
AlamarBlue absorbance [14]: 0.40
Effect/control (AlamarBlue absorbance) [14]: 0.42

Molecule: CO[C@@]12[C@H](COC(N)=O)C3=C(C(=O)C(C)=C(N)C3=O)N1C[C@@H]1N[C@@H]12 [MMC, mitomycin C]
Effect/control (AlamarBlue absorbance) [3]: 0.42
Effect/control (AlamarBlue fluorescence) [4]: 0.46
Effect/control (FDA volume) [5]: 0.33
Effect/control (FDA image fluorescence) [6]: 0.42
Effect/control (FDA spectrophotofluorimetry) [7]: 0.46
Effect/control (Neutral Red volume) [8]: 0.31
FDA volume [9]: 5.07 10^7 μm^3
FDA image fluorescence units [10]: 3.26 10^1
Neutral Red volume [11]: 5.19 10^7 μm^3
FDA spectrophotofluorimetry fluorescence units [12]: 3.37 10^1
AlamarBlue fluorescence intensity [13]: 3.24 10^2
AlamarBlue absorbance [14]: 0.40

Effect/control (AlamarBlue absorbance) [3]: 0.73
Effect/control (AlamarBlue fluorescence) [4]: 0.72
Effect/control (FDA volume) [5]: 0.61
Effect/control (FDA image fluorescence) [6]: 0.62
Effect/control (FDA spectrophotofluorimetry) [7]: 0.61
Effect/control (Neutral Red volume) [8]: 0.60
Molecule: CC[C@]1(O)C[C@@H]2CN(CCc3c([nH]c4ccccc34)[C@@](C(=O)OC)(c3cc4c(cc3OC)N(C)[C@H]3[C@@](O)(C(N)=O)[C@H](O)[C@]5(CC)C=CCN6CC[C@]43[C@@H]65)C2)C1 [VDS, vindesine]
FDA volume [9]: 9.25 10^7 μm^3
FDA image fluorescence units [10]: 4.74 10^1
Neutral Red volume [11]: 10.10 10^7 μm^3
FDA spectrophotofluorimetry fluorescence units [12]: 4.52 10^1
AlamarBlue fluorescence intensity [13]: 5.13 10^2
AlamarBlue absorbance [14]: 0.69

Molecule: COc1cc(C2c3cc4c(cc3C(OC3OC5COC(C)OC5C(O)C3O)C3COC(=O)C23)OCO4)cc(OC)c1O (stereo not shown) [VP-16]
Effect/control (FDA volume) [9]: 0.93
FDA image fluorescence units [10]: 7.23 10^1
Effect/control (FDA image fluorescence) [10]: 0.94
Neutral Red volume [11]: 15.54 10^7 μm^3
Effect/control (Neutral Red volume) [11]: 0.92
FDA spectrophotofluorimetry fluorescence units [12]: 6.90 10^1
Effect/control (FDA spectrophotofluorimetry) [12]: 0.93
AlamarBlue fluorescence intensity [13]: 6.64 10^2
Effect/control (AlamarBlue fluorescence) [13]: 0.94
AlamarBlue absorbance [14]: 0,87
Effect/control (AlamarBlue absorbance) [14]: 0.91

Molecule: TGF-β
Proliferation state of vascular endothelial cells ([15]; 0 mm from surface of gel 20a): lump
Proliferation state of vascular endothelial cells ([15]; 1 mm from surface of gel 20a): tree
Proliferation state of vascular endothelial cells ([15]; 3 mm from surface of gel 20a): lump
Proliferation state of vascular endothelial cells ([15]; 4 mm from surface of gel 20a): lump

Molecule: dextran sulfate
proliferation of the fibroblasts [16]: partially suppressed
